Data: patent US5444174A, “16-membered macrolide derivative having sustained antibacterial activity in plasma, synthesis intermediate thereof and process for producing the same” (Meiji Seika Kaisha, Ltd., priority 1992, dated 1995)
Converted amounts (≈) assume the structure as drawn.

Tests used:
[1] = Storage stability of synthesis intermediates; format: physicochemical; conditions: room temperature storage
Sta. aureus MS15027 = assay: Antibacterial activity (MIC), agar plate dilution method; format: cell-based; conditions: Staphylococcus aureus; 37° C., 20 hours; Sta. aureus MS15027; read-out: Antibacterial activity (MIC)
Procedure: (§1) Antibacterial activities of the compounds of formula (I) are shown in Table 1 in terms of minimum inhibitory concentration (MIC).
(§2) Minimum inhibitory concentration was determined by the agar plate dilution method. Test strains were subjected to seed culture using Sensitivity test broth (STB, Nissui Pharmaceutical) except that the strains belonging to the genus Streptococcus, Branhamella and Haemophilus were cultured on blood agar plate. A 5 μl portion of cell suspension of the test strains having about 10^6 CFU/ml was inoculated into Sensitivity disk agar (SDA, Nissui Pharmaceutical) supplemented with 5% horse blood and incubated at 37° C. for 20 hours. Then, MIC was measured.

Ent. faecalis W-73 = assay: as above; format: cell-based; conditions: Enterococcus faecalis, W73, 37° C., 20 hours
Procedure: as §1, §2

S. Pyogenes Cook = assay: as above; format: cell-based; conditions: Streptococcus pyogenes, 37° C., 20 hours, blood agar seed culture
Procedure: as §1, §2

B. catarrhalis W-0500 = assay: as above; format: cell-based; conditions: Moraxella catarrhalis, W0500; 37° C., 20 hours; blood agar seed culture; B. catarrhalis W-0500; read-out: Antibacterial activity (MIC)
Procedure: as §1, §2

K. pneumoniae PC1602 = assay: as above; format: cell-based; conditions: Klebsiella pneumoniae, 37° C., 20 hours
Procedure: as §1, §2

[2] = system: Sta. aureus MS15009/pMS98; assay: as above; format: cell-based; conditions: Staphylococcus aureus, MS15009/PMS98, 20 h, read-out: Antibacterial activity (MIC)
Procedure: as §1, §2

E. coli NIHJ JC-2 = assay: as above; format: cell-based; conditions: Escherichia coli, NIHJJC2, 37° C., 20 hours
Procedure: as §1, §2

Sta. aureus M133 = assay: as above; format: cell-based; conditions: Staphylococcus aureus; 37° C., 20 hours; Sta. aureus M133; read-out: Antibacterial activity (MIC)
Procedure: as §1, §2

B. catarrhalis W-0506 = assay: as above; format: cell-based; conditions: Moraxella catarrhalis, W0506; 37° C., 20 hours; blood agar seed culture; B. catarrhalis W-0506; read-out: Antibacterial activity (MIC)
Procedure: as §1, §2

H. influenza 9334 = assay: as above; format: cell-based; conditions: 37° C., 20 hours, blood agar seed culture
Procedure: as §1, §2

Sta. aureus MS15026 = assay: as above; format: cell-based; conditions: Staphylococcus aureus, 37° C., 20 hours
Procedure: as §1, §2

Sta. aureus 209P JC-1 = assay: as above; format: cell-based; conditions: Staphylococcus aureus, 37° C., 20 hours
Procedure: as §1, §2

S. pneumoniae IP692 = assay: as above; format: cell-based; conditions: Streptococcus pneumoniae, 37° C., 20 hours, blood agar seed culture
Procedure: as §1, §2

[3] = system: Sta. aureus MS15009/pMS99; assay: as above; format: cell-based; conditions: Staphylococcus aureus, MS15009/PMS99, 20 h, read-out: Antibacterial activity (MIC)
Procedure: as §1, §2

M. luteus ATCC 9341 = assay: as above; format: cell-based; conditions: Micrococcus luteus, ATCC9341, 37° C., 20 hours
Procedure: as §1, §2

[4] = system: Sta. epidermidis ATCC 14990; assay: as above; format: cell-based; conditions: Staphylococcus epidermidis, ATCC14990; 37° C., 20 hours; Sta. epidermidis ATCC 14990; read-out: Antibacterial activity (MIC)
Procedure: as §1, §2

Sta. aureus M126 = assay: as above; format: cell-based; conditions: Staphylococcus aureus, 37° C., 20 hours
Procedure: as §1, §2

S. pneumoniae Type 1 = assay: as above; format: cell-based; conditions: Streptococcus pneumoniae, TYPE1, 37° C., 20 hours, blood agar seed culture
Procedure: as §1, §2

M. luteus = format: in vitro ADME
Procedure: Each test compound and 50 μl of a methanol solution (10,000 γ) were added to 950 μl of thawed rat plasma and the resulting mixture was incubated at 37° C. A 20 μl portion of the mixture was sampled after 0, 1, 3, 6 and 24 hours and added to 980 μl of 0.05M phosphate buffer (pH 7.2). A 20 μl portion of the sample solution was used to measure antibacterial activity against M. luteus. Separately, the calibration curve was prepared by using a methanol solution containing each test compound. The starting activity of each compound in the plasma was referred to as 100%.
Changes in the antibacterial activities of miokamycin and the compound (14) against M. luteus were measured in the same manner as described above except for using fresh rat plasma in place of thawed rat plasma. The fresh rat plasma was prepared by collecting 50 ml of blood from five rats, treating the blood with heparin and subjecting it to centrifugation to obtain plasma.

gram-positive bacteria = assay: Antibacterial activities against gram-positive bacteria (summary of Table 1); format: cell-based; conditions: in words
Procedure: as §1, §2

[5] = cited from earlier work
[6] = vs midecamycin; cited from earlier work
[7] = cited from earlier work; remark: listed apart in the source
[8] = human compared with rat; cited from earlier work

Compound: CCC(=O)O[C@@H]1CC(=O)O[C@H](C)C/C=C/C=C/C(=O)[C@H](C)C[C@H](CC2OCCO2)[C@H](O[C@@H]2O[C@H](C)[C@@H](O)[C@H]([N+](C)(C)[O-])[C@H]2O)[C@H]1OC [Compound (2)]
- stability [1]: so stable as to be stored at room temperature for a prolonged period of time

Compound: CCC(=O)O[C@@H]1CC(=O)O[C@H](C)C/C=C/C=C/C(=O)[C@H](C)C[C@H](CC=O)[C@H](O[C@@H]2O[C@H](C)[C@@H](O[C@H]3C[C@@](C)(OC)[C@@H](OCCC(C)C)[C@H](C)O3)[C@H](N(C)C)[C@H]2O)[C@H]1OC [Compound (14)]
- MIC (Sta. aureus MS15027): 0.78 µg/mL (≈ 0.929 µM)
- MIC (Ent. faecalis W-73): 1.56 µg/mL (≈ 1.86 µM)
- MIC (S. Pyogenes Cook): 0.05 µg/mL (≈ 0.0595 µM)
- MIC (B. catarrhalis W-0500): 0.78 µg/mL (≈ 0.929 µM)
- MIC (K. pneumoniae PC1602): > 100 µg/mL
- MIC [2]: 0.78 µg/mL (≈ 0.929 µM)
- MIC (E. coli NIHJ JC-2): > 100 µg/mL
- MIC (Sta. aureus M133): 0.78 µg/mL (≈ 0.929 µM)
- MIC (B. catarrhalis W-0506): 0.78 µg/mL (≈ 0.929 µM)
- MIC (H. influenza 9334): 6.25 µg/mL (≈ 7.44 µM)
- MIC (Sta. aureus MS15026): > 100 µg/mL
- MIC (Sta. aureus 209P JC-1): 0.2 µg/mL (≈ 0.238 µM)
- MIC (S. pneumoniae IP692): 0.1 µg/mL (≈ 0.119 µM)
- MIC [3]: > 100 µg/mL
- MIC (M. luteus ATCC 9341): 0.1 µg/mL (≈ 0.119 µM)
- MIC [4]: 0.78 µg/mL (≈ 0.929 µM)
- MIC (Sta. aureus M126): > 100 µg/mL
- MIC (S. pneumoniae Type 1): 0.2 µg/mL (≈ 0.238 µM)
- antibacterial activity in rat plasma over time (M. luteus): antibacterial activity sustaining for a prolonged period of time in rat plasma
- degree of the decrease in the antibacterial activity in plasma (M. luteus): clearly lower degree of the decrease in the antibacterial activity in plasma, compared with miokamycin
- metabolism at the mycarose moiety in plasma (M. luteus): hardly metabolized at the mycarose moiety
- antibacterial activities against gram-positive bacteria (gram-positive bacteria): have antibacterial activities against gram-positive bacteria
- antibacterial activities compared with miokamycin (gram-positive bacteria; vs miokamycin): excellent antibacterial activities exceeding that of miokamycin

Compound: CCC(=O)O[C@@H]1CC(=O)O[C@H](C)C/C=C/C=C/[C@H](OC(C)=O)[C@H](C)C[C@H](CC=O)[C@H](O[C@@H]2O[C@H](C)[C@@H](O[C@H]3C[C@@](C)(OC(C)=O)[C@@H](OC(=O)CC)[C@H](C)O3)[C@H](N(C)C)[C@H]2O)[C@H]1OC [Miokamycin, miokamycin, reference compound]
- MIC (Sta. aureus MS15027): 0.78 µg/mL (≈ 0.869 µM)
- MIC (Ent. faecalis W-73): 1.56 µg/mL (≈ 1.74 µM)
- MIC (S. Pyogenes Cook): 0.1 µg/mL (≈ 0.111 µM)
- MIC (B. catarrhalis W-0500): 1.56 µg/mL (≈ 1.74 µM)
- MIC (K. pneumoniae PC1602): > 100 µg/mL
- MIC [2]: 0.78 µg/mL (≈ 0.869 µM)
- MIC (E. coli NIHJ JC-2): > 100 µg/mL
- MIC (Sta. aureus M133): 0.78 µg/mL (≈ 0.869 µM)
- MIC (B. catarrhalis W-0506): 1.56 µg/mL (≈ 1.74 µM)
- MIC (H. influenza 9334): 6.25 µg/mL (≈ 6.96 µM)
- MIC (Sta. aureus MS15026): > 100 µg/mL
- MIC (Sta. aureus 209P JC-1): 0.2 µg/mL (≈ 0.223 µM)
- MIC (S. pneumoniae IP692): 0.2 µg/mL (≈ 0.223 µM)
- MIC [3]: > 100 µg/mL
- MIC (M. luteus ATCC 9341): 0.1 µg/mL (≈ 0.111 µM)
- MIC [4]: 0.78 µg/mL (≈ 0.869 µM)
- MIC (Sta. aureus M126): > 100 µg/mL
- MIC (S. pneumoniae Type 1): 0.2 µg/mL (≈ 0.223 µM)
- antibacterial activity after metabolism in vivo [5]: the antibacterial activity of this antibiotic is reduced
- elimination of acyl group at the mycarose moiety in vivo [5]: eliminated in vivo
- infection-protective action in vivo [6]: superior to midecamycin
- recovery ratio in urine ([7]; vs midecamycin): superior to midecamycin
- dynamics in vivo ([7]; vs natural compounds): superior in the dynamics in vivo to natural compounds
- metabolic pattern of the deacylation of the mycarose moiety in human [8]: almost similar to that in rat
